Measured values as given in patent publication US20100234348A1, “COMPOSITIONS AND METHODS FOR POTENTIATING ANTIBIOTIC ACTIVITY” (TRUSTEES OF BOSTON UNIVERSITY, priority 2006, published 2010).
≈ marks a conversion by molar mass, not a printed value.

Tested on: quinolone resistant strain laboratory S7
Experiment: Growth of quinolone resistant strain S7 with ciprofloxacin and CB101 forms
Format: cell-based
Conditions: Staphylococcus
Description: The quinolone resistant strain laboratory S7 was tested for growth in the presence of ciprofloxacin at 0.5 μg/mL (MIC at 1 μg/mL) with 20 μg/mL of CB101 (racemic mixture), the (+) enantiomeric form of CB101 or the (−) enantiomeric form of CB101.

Compound: O=C(O)c1cn(C2CC2)c2cc(N3CCNCC3)c(F)cc2c1=O [ciprofloxacin]
- MIC: 1 µg/mL (≈ 3.02 µM)
